Measurements published in the supplement of paper PMC10307832.

How the values were obtained:
Experiment in all cases: relative viability (nuclei count vs DMSO), 5 days (fraction); higher = more cells survive
Ponatinib + OSI-027 = compound: Cc1ccc(C(=O)Nc2ccc(CN3CCN(C)CC3)c(C(F)(F)F)c2)cc1C#Cc1cnc2cccnn12 [Ponatinib] + COc1cccc2cc(-c3nc([C@H]4CC[C@H](C(=O)O)CC4)n4ncnc(N)c34)[nH]c12 [OSI-027] (partner 0.5 µM)
Outline: (§1)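 Medians of duplicate plates are given as relative viability. That measure is the nuclei count in treated wells divided by the count in vehicle wells. Counts were taken on 4× images of lung cancer cell lines in 1536-well plates, 5 days after pin-tool dosing the day after seeding with one drug alone or a fixed anchor-drug dose plus five library-drug doses (not always all listed) in √10 steps.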

Ponatinib + Pictilisib = compound: Cc1ccc(C(=O)Nc2ccc(CN3CCN(C)CC3)c(C(F)(F)F)c2)cc1C#Cc1cnc2cccnn12 [Ponatinib] + CS(=O)(=O)N1CCN(Cc2cc3nc(-c4cccc5[nH]ncc45)nc(N4CCOCC4)c3s2)CC1 [Pictilisib] (partner 1 µM)
Outline: as §1

Pazopanib + Lapatinib = compound: Cc1ccc(Nc2nccc(N(C)c3ccc4c(C)n(C)nc4c3)n2)cc1S(N)(=O)=O [Pazopanib] + CS(=O)(=O)CCNCc1ccc(-c2ccc3ncnc(Nc4ccc(OCc5cccc(F)c5)c(Cl)c4)c3c2)o1 [Lapatinib] (partner 2 µM)
Outline: as §1

Pazopanib + Dasatinib = compound: Cc1ccc(Nc2nccc(N(C)c3ccc4c(C)n(C)nc4c3)n2)cc1S(N)(=O)=O [Pazopanib] + Cc1nc(Nc2ncc(C(=O)Nc3c(C)cccc3Cl)s2)cc(N2CCN(CCO)CC2)n1 [Dasatinib] (partner 0.075 µM)
Outline: as §1

Row | Cell Line | relative viability (Ponatinib + OSI-027; first compound 0.002 µM) | relative viability (Ponatinib + OSI-027; first compound 0.006325 µM) | relative viability (Ponatinib + OSI-027; first compound 0.06325 µM) | relative viability (Ponatinib + OSI-027; first compound 0.2 µM) | relative viability (Ponatinib + Pictilisib; first compound 0.002 µM) | relative viability (Ponatinib + Pictilisib; first compound 0.006325 µM) | relative viability (Ponatinib + Pictilisib; first compound 0.06325 µM) | relative viability (Ponatinib + Pictilisib; first compound 0.2 µM) | relative viability (Pazopanib + Lapatinib; first compound 0.01 µM) | relative viability (Pazopanib + Lapatinib; first compound 0.03162 µM) | relative viability (Pazopanib + Lapatinib; first compound 0.1 µM) | relative viability (Pazopanib + Lapatinib; first compound 0.3162 µM) | relative viability (Pazopanib + Lapatinib; first compound 1 µM) | relative viability (Pazopanib + Dasatinib; first compound 0.01 µM) | relative viability (Pazopanib + Dasatinib; first compound 0.03162 µM) | relative viability (Pazopanib + Dasatinib; first compound 0.1 µM) | relative viability (Pazopanib + Dasatinib; first compound 0.3162 µM) | relative viability (Pazopanib + Dasatinib; first compound 1 µM)
1 | NCI-H1975 | 0.602 | 0.575 | 0.47 | 0.503 | 0.311 | 0.309 | 0.408 | 0.353 | 0.798 | 0.822 | 0.875 | 0.873 | 0.907 | 0.371 | 0.359 | 0.336 | 0.415 | 0.359
2 | NCI-H1651 | 0.639 | 0.638 | 0.825 | 0.66 | 0.61 | 0.728 | 0.552 | 0.634 | 0.76 | 0.876 | 0.885 | 0.857 | 1.12 | 0.371 | 0.46 | 0.397 | 0.436 | 0.5
3 | NCI-H460 | 0.605 | 0.56 | 0.637 | 0.49 | 0.383 | 0.441 | 0.469 | 0.452 | 1.05 | 1.06 | 1.04 | 0.946 | 1.15 | 0.274 | 0.472 | 0.566 | 0.603 | 0.758
4 | LCLC-97TM1 | 0.448 | 0.561 | 0.606 | 0.28 |  | 0.243 |  | 0.221 |  | 0.613 | 0.974 | 1.52 | 0.918 | 0.771 | 0.854 | 0.888 | 0.847 | 0.785
